# Columns and labels:
# Format in all cases: in vivo
# Sinapsis [1] = assay: Post-emergent herbicidal action; details: 2000 g AS/ha sprayed in the 4- to 6-leaf stage; evaluated about 18 days later; rating scale 1-9 (1=total damage, 9=no action)
# Description: (§1) In a greenhouse, monocot and dicot test plants are sown in standard soil in plastic pots and sprayed in the 4- to 6-leaf stage with an aqueous suspension of the test compounds of formula I prepared from a 25% wettable powder [Example F3, b) of WO 97/34485] or with an emulsion of the test compound of formula I prepared from a 25% emulsifiable concentrate [Example F1 c) of WO 97/34485] at a concentration of 2 kg active substance/ha (500 l of water/ha). The test plants are then further cultivated in the greenhouse under optimum conditions. The test is evaluated about 18 days later on a rating scale of 1-9 (1=total damage, 9=no action). Ratings of 1 to 4 (especially of 1 to 3) denote good to very good herbicidal action.
# Solanig [2] = assay: Post-emergent herbicidal action; details: 2000 g AS/ha sprayed in the 4- to 6-leaf stage; evaluated about 18 days later; rating scale 1-9 (1=total damage, 9=no action)
# Description: as §1
# Setaria [3] = assay: Post-emergent herbicidal action; details: 2000 g AS/ha sprayed in the 4- to 6-leaf stage; evaluated about 18 days later; rating scale 1-9 (1=total damage, 9=no action)
# Description: as §1
# Cyperus [4] = assay: Post-emergent herbicidal action; details: 2000 g AS/ha sprayed in the 4- to 6-leaf stage; evaluated about 18 days later; rating scale 1-9 (1=total damage, 9=no action)
# Description: as §1
# Stellaria [5] = assay: Post-emergent herbicidal action; details: 2000 g AS/ha sprayed in the 4- to 6-leaf stage; evaluated about 18 days later; rating scale 1-9 (1=total damage, 9=no action)
# Description: as §1
# Sinapsis [6] = assay: Pre-emergent herbicidal action; details: 2000 g AS/ha sprayed immediately after sowing; evaluated 3 weeks later; rating scale 1-9 (1=total damage, 9=no action)
# Description: (§2) Monocot and dicot test plants are sown in standard soil in plastic pots. Immediately after sowing, the plants are sprayed at a concentration of 2 kg active substance/ha with an aqueous suspension of the test compound [prepared from a 25% wettable powder (Example F3, b) in accordance with WO 97/34485] or an emulsion of the test compound [prepared from a 25% emulsifiable concentrate (Example Fl c)] (500 l of water/ha). The test plants are then cultivated in the greenhouse under optimum conditions. The test is evaluated 3 weeks later on a rating scale of 1-9 (1=total damage, 9=no action). Ratings of 1 to 4 (especially of 1 to 3) denote good to very good herbicidal action.
# Solanig [7] = assay: Pre-emergent herbicidal action; details: 2000 g AS/ha sprayed immediately after sowing; evaluated 3 weeks later; rating scale 1-9 (1=total damage, 9=no action)
# Description: as §2
# Setaria [8] = assay: Pre-emergent herbicidal action; details: 2000 g AS/ha sprayed immediately after sowing; evaluated 3 weeks later; rating scale 1-9 (1=total damage, 9=no action)
# Description: as §2
# Cyperus [9] = assay: Pre-emergent herbicidal action; details: 2000 g AS/ha sprayed immediately after sowing; evaluated 3 weeks later; rating scale 1-9 (1=total damage, 9=no action)
# Description: as §2
# Stellaria [10] = assay: Pre-emergent herbicidal action; details: 2000 g AS/ha sprayed immediately after sowing; evaluated 3 weeks later; rating scale 1-9 (1=total damage, 9=no action)
# Description: as §2
Structure (SMILES),"Post-emergent action, test plant Sinapsis, rating (Sinapsis [1])","Post-emergent action, test plant Solanig, rating (Solanig [2])","Post-emergent action, test plant Setaria, rating (Setaria [3])","Post-emergent action, test plant Cyperus, rating (Cyperus [4])","Post-emergent action, test plant Stellaria, rating (Stellaria [5])","Pre-emergent action, test plant Sinapsis, rating (Sinapsis [6])","Pre-emergent action, test plant Solanig, rating (Solanig [7])","Pre-emergent action, test plant Setaria, rating (Setaria [8])","Pre-emergent action, test plant Cyperus, rating (Cyperus [9])","Pre-emergent action, test plant Stellaria, rating (Stellaria [10])"
"COCc1c(S(C)(=O)=O)ccc(C(=O)C2=C(O)C3CCC(C3)C2=O)c1C (centres unmarked) [1,001, 4-hydroxy-3-(4-methylsulphonyl-3-methoxymethyl-2-methyl-benzoyl)-bicyclo[3.2.1]oct-3-en-2-one]",2,2,2,3,2,3,2,3,3,2
"COCc1c(S(C)(=O)=O)ccc(C(=O)C2=C(O)C(C)(C)ON(C)C2=O)c1C [2,001, 5-hydroxy-4-(4-methylsulphonyl-3-methoxymethyl-2-methyl-benzoyl)-2,6,6-trimethyl-6.H.-[1,2]oxazin-3-one]",2,2,3,3,4,2,2,3,3,2

# From patent US20070265165A1, “NOVEL HERBICIDES” (Syngenta Crop Protection, Inc., priority 1998, published 2007)
